Source: patent US20230181560A1, “COMPOUND FOR PREVENTING OR TREATING A VIRAL INFECTION” (priority 2020, published 2023)
Like-named read-outs stand apart in the source and are kept apart here.

Columns and labels:
[1] = test system: CD4 T lymphocytes infected with HIV-1 lai; experiment: Annexin V staining (cell mortality/apoptosis) of HIV-1 infected CD4 T lymphocytes; format: cell-based; settings: 20 µM every two days; day 5 post-infection
HIV-1 lai = experiment: Intracellular P24 capsid protein staining by flow cytometry in HIV-1 infected CD4 T lymphocytes; format: cell-based; settings: 20 µM added every two days, staining day 4, 5, 6 post-infection
SIV = settings: cited from earlier work
HIV = settings: WO2009/092897; cited from earlier work
caspases = settings: cited from earlier work
SARS-CoV-2 [2] = experiment: microbe, parasite or virus in culture; format: cell-based
SARS-CoV-2 [3] = format: cell-based
SARS-CoV-2 [4] = format: cell-based; remark: listed apart in the source

SMILES: CC(C)[C@H](NC(=O)c1ccc2ccccc2n1)C(=O)N[C@@H](CC(=O)O)C(=O)COc1c(F)cccc1F [QVD-Unmethylated]
- cell mortality (Annexin V surface staining) [1]: The results were the same
- antiviral effect on HIV-1 replication (intracellular P24 capsid protein) (HIV-1 lai): same antiviral effect

SMILES: CCO[C@@H]1OC(=O)C[C@@H]1NC(=O)[C@@H]1CCCN1C(=O)[C@@H](NC(=O)c1ccc(N)c(Cl)c1)C(C)(C)C [VX-765]
- antiviral effect on HIV-1 replication (intracellular P24 capsid protein) (HIV-1 lai): no effect on the viral replication

SMILES: CC(C)C(NC(=O)c1ccc2ccccc2n1)C(=O)NC(CC(=O)O)C(=O)COc1c(F)cccc1F (stereo not shown) [Q-VD-OPh]
- AIDS disease progression and control of viral replication (SIV; SIV-infected rhesus macaques, five injections during primary infection): prevents AIDS disease progression
- cancer development after treatment (SIV; six monkeys, four or five years after treatment): none of the animals have developed a cancer
- inhibition of viral replication in HIV-infected cells (HIV): inhibition of viral replication
- caspase inhibitory activity (caspases): broad caspase inhibitor

SMILES: CC(C)C(NC(=O)c1ccc2ccccc2n1)C(=O)NC(CCC(=O)O)C(=O)COc1c(F)cccc1F (stereo not shown) [Q-VE-OPh]
- cell mortality (Annexin V surface staining) [1]: much less mortality than the infected cells
- effect on the entry of the virus into the cell (SARS-CoV-2 [2]): no significant effect
- inhibition at 50 µM (SARS-CoV-2 [2]; Severe acute respiratory syndrome coronavirus 2, Vero C1008, 72 h, read-out: inhibition of SARS-CoV-2 viral replication): ~99%
- inhibition at 25 µM (SARS-CoV-2 [2]; Severe acute respiratory syndrome coronavirus 2, Vero C1008, 72 h, 25 µM, read-out: inhibition of SARS-CoV-2 viral replication): ~70%
- antiviral effect on HIV-1 replication (intracellular P24 capsid protein) (HIV-1 lai): same antiviral effect as the comparative Q-VD-OPh molecule
- caspase inhibitory activity (caspases): does not show any caspase inhibitory activity
- relative expression of the Nucleocapsid (N) and NSP6 genes in supernatants of infected cells (SARS-CoV-2 [3]): reduce significantly
- toxicity on Vero E6 cells (Vero E6 cells; 100 µM added for three days): without any toxicity
- toxicity on Vero E6 cells (Vero E6 cells; 25, 50, 100 µM, infected (MOI 0.05) or not, 72 h post-infection): no toxicity effect
- expression of the viral Spike and Nucleocapsid proteins within infected cells (SARS-CoV-2 [4]): reduce significantly

SMILES: COC(=O)C[C@H](NC(=O)[C@@H](NC(=O)c1ccc2ccccc2n1)C(C)C)C(=O)COc1c(F)cccc1F [QVD-methylated]
- cell mortality (Annexin V surface staining) [1]: contrary
- antiviral effect on HIV-1 replication (intracellular P24 capsid protein) (HIV-1 lai): same antiviral effect
